Data on three molecules can be found in US4235962A, “Combination kit for transaminase assay of a body fluid” (The Dow Chemical Company, priority 1978, dated 1980).

One test concerns the target AST (Sus scrofa, UniProt P00503). The following applies: cited from earlier work.
Test [1] has as its target T1, ALT (alanine 2-oxoglutarate aminotransferase) (Homo sapiens, UniProt P24298).
T1 sequence (P24298 2-496 limits assumed): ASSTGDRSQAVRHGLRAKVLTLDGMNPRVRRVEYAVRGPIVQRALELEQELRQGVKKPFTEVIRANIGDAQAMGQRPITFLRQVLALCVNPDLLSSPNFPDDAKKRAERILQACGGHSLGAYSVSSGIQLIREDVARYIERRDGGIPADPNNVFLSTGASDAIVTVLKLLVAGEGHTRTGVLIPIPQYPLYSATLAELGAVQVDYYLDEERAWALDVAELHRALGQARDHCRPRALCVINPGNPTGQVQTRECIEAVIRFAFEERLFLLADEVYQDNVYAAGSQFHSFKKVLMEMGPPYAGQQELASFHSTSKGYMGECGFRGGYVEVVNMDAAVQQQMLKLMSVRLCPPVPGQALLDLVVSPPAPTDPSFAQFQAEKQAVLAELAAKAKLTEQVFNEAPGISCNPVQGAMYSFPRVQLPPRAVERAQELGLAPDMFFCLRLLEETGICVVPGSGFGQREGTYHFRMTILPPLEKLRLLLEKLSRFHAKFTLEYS
Text: For precise measurement of a bimolecular reaction of the type under discussion, the rate of a reaction, at a given "B" concentration should be independent of A's concentration (i.e. at or near apparent Vmax with respect to A). However, for situations where A's concentrations are very low (i.e. endogenous serum contributions of amino acids in a side reaction situation) it becomes important to be able to access the extent of measurement of the apparent maximum velocity of said "contaminant reaction." This being the case of a combination AST/ALT test where one is concerned with the measurement of AST in an ALT test or vice versa, a mathematical outline is in order. Both side reactions are quantitatively discussed below.
ALT, likewise having a "ping pong" mechanism of catalysis, can kinetically be described identically: [formula] […] (KB /B+1 is again <<KA /A.
Therefore the [formula] […] Therefore the % V1 apparent as measured [formula]

Sequence of AST (P00503 2-413 limits assumed): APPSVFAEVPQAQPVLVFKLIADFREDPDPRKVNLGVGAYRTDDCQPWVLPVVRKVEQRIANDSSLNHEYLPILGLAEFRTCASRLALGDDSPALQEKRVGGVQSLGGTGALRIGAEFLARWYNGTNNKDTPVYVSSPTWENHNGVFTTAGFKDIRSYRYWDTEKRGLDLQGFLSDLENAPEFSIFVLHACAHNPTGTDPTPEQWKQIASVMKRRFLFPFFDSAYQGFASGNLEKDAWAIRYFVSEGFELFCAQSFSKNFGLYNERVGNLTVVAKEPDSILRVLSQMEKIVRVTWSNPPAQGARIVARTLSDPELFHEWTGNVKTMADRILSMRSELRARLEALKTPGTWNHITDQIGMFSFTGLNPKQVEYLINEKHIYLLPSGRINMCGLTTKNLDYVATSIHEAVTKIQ

For `O=C(O)CCC(=O)C(=O)O` [2-oxoglutarate, 2-Oxoglutarate], on AST (read-out: KB, B = 2-oxoglutarate), the Km is 100 µM.

Consider `C[C@H](N)C(=O)O` [alanine, L-alanine], for which, in test [1], the “Theoretical turnover of ALT” value was found to be 1.32 % Vmax.

As to `N[C@@H](CC(=O)O)C(=O)O` [aspartate, L-aspartate], the KA at AST (A = aspartate) is reported as 0.90 mM.
